ChEMBL document CHEMBL3991601, “The target landscape of clinical kinase drugs” (Science, 2017)
The source made the active and inactive calls.

How the values were obtained:
[1] = biological target: T1, Mitogen-activated protein kinase kinase kinase 6 (Homo sapiens, UniProt O95382)
T1 sequence (O95382 whole entry): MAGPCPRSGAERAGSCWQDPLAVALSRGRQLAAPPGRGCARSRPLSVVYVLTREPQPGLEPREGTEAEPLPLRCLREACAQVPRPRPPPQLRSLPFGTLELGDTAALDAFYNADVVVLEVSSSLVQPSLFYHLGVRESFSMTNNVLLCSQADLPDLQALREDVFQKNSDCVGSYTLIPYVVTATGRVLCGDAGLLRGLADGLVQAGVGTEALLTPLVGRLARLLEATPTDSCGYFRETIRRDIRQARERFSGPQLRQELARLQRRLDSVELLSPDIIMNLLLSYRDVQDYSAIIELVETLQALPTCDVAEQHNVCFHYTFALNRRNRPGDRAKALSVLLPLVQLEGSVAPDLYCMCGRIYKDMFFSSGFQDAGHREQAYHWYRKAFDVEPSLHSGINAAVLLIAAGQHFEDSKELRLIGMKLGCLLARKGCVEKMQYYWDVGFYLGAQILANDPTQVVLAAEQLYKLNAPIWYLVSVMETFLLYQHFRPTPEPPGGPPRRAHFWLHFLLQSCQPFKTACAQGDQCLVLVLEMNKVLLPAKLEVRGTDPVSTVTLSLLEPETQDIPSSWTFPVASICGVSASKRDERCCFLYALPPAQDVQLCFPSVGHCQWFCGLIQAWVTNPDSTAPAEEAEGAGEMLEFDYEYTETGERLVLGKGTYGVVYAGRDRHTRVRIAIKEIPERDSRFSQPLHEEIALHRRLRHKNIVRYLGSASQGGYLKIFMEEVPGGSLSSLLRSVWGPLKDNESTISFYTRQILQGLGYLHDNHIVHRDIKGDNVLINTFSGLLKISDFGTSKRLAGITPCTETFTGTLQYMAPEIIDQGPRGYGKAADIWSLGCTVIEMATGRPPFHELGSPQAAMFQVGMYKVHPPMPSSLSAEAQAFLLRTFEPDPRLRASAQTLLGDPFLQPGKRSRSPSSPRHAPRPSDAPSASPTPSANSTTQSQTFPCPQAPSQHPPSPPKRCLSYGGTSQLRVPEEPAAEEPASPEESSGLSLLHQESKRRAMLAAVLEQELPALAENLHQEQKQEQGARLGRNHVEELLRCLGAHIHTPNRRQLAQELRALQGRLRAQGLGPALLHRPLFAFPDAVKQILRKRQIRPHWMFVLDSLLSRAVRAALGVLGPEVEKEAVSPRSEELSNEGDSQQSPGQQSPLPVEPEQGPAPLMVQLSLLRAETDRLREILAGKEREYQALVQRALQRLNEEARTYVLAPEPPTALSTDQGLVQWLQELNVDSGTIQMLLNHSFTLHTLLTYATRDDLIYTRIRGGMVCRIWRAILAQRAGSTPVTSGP

[2] = biological target: T2, Cytochrome c1, heme protein, mitochondrial (Homo sapiens, UniProt P08574)
T2 sequence (P08574 whole entry): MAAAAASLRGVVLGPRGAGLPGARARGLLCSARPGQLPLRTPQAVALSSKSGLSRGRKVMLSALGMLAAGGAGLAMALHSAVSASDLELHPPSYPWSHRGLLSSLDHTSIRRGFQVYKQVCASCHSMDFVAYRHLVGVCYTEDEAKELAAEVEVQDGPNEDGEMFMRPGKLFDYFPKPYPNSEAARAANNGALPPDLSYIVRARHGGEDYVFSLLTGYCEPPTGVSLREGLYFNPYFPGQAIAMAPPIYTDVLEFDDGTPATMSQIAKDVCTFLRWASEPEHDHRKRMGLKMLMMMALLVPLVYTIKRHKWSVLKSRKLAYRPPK

[3] = biological target: T3, Ephrin type-B receptor 4 (Homo sapiens, UniProt P54760)
T3 sequence (P54760 whole entry): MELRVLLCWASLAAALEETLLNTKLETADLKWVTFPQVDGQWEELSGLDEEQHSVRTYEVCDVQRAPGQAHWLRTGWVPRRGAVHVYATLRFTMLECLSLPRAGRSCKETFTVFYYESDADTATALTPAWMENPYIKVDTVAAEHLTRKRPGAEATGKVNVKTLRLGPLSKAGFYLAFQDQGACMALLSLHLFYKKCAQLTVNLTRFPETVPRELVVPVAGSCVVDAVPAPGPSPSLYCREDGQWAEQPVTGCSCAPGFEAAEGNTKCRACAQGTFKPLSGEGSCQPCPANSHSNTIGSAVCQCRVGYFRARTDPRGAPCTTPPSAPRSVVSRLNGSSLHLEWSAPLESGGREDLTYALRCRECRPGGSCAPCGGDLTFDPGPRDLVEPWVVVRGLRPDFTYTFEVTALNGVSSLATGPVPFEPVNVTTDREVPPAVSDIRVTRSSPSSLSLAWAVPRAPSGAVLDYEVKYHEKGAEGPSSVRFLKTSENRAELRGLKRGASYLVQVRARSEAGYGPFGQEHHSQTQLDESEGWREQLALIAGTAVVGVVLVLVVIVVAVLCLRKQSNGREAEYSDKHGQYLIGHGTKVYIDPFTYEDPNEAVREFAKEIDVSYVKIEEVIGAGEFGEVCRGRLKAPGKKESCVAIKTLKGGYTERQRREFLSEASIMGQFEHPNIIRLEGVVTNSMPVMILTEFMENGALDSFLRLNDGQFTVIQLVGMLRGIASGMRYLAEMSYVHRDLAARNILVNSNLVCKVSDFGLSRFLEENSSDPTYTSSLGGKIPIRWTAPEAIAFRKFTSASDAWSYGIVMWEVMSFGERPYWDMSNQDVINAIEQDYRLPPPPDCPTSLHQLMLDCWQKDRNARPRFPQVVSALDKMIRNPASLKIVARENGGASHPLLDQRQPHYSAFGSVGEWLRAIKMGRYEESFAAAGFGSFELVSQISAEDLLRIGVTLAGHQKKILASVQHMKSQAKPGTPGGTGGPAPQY

[4] = biological target: Dual specificity mitogen-activated protein kinase kinase 1 (Homo sapiens, UniProt Q02750)
Further: in the data inactive means no Kd found up to 30 µM.

Dual specificity mitogen-activated protein kinase kinase 1, sequence (Q02750 whole entry): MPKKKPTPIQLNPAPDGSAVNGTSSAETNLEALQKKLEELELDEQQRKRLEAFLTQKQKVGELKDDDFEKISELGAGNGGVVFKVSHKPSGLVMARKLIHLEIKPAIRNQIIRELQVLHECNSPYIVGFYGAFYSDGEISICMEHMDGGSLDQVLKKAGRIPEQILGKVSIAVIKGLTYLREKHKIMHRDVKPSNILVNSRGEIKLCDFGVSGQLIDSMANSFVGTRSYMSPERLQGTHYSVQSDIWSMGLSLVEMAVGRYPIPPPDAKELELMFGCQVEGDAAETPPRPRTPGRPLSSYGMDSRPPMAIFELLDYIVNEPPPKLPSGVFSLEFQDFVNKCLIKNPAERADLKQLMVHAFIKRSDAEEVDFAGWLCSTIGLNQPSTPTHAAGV

SMILES | Kd [1] | Kd [2] | Kd [3] | Kd [4]
CCc1cnn2c(NCc3ccc[n+]([O-])c3)cc(N3CCCC[C@H]3CCO)nc12 [DINACICLIB] | > 30 µM (inactive) | > 30 µM (inactive) | > 30 µM (inactive) | –
Cn1ncc(Cl)c1-c1cc(C(=O)N[C@H](CN)Cc2cccc(F)c2)sc1Cl [AFURESERTIB] | > 30 µM (inactive) | > 30 µM (inactive) | > 30 µM (inactive) | > 30 µM (inactive)
CC[C@H](Nc1ncnc2[nH]cnc12)c1nc2cccc(F)c2c(=O)n1-c1ccccc1 [IDELALISIB] | > 30 µM (inactive) | > 30 µM (inactive) | > 30 µM (inactive) | > 30 µM (inactive)
O=C(O)[C@]1(Cc2cccc(Nc3nccs3)n2)CC[C@@H](Oc2cccc(Cl)c2F)CC1 [MK-5108] | > 30 µM (inactive) | > 30 µM (inactive) | > 30 µM (inactive) | > 30 µM (inactive)
CN(C)C(=O)c1cc2cnc(Nc3ccc(N4CCNCC4)cn3)nc2n1C1CCCC1 [RIBOCICLIB] | > 30 µM (inactive) | > 30 µM (inactive) | > 30 µM (inactive) | > 30 µM (inactive)
C[C@@H]1CN(Cc2ccc(F)cc2)[C@@H](C)CN1C(=O)c1cc2c(C(=O)C(=O)N(C)C)cn(C)c2cc1Cl [TALMAPIMOD] | > 30 µM (inactive) | > 30 µM (inactive) | > 30 µM (inactive) | > 30 µM (inactive)
O=C1NC(=O)/C(=C/c2ccc3nccc(-c4ccncc4)c3c2)S1 [GSK-1059615] | > 30 µM (inactive) | > 30 µM (inactive) | > 30 µM (inactive) | 18.5 µM (active)
Cn1cc(-c2ccc3nnc(C(F)(F)c4ccc5ncccc5c4)n3n2)cn1 [JNJ-38877605] | > 30 µM (inactive) | > 30 µM (inactive) | > 30 µM (inactive) | > 30 µM (inactive)
CO[C@H]1C[C@@H]2CC[C@@H](C)[C@@](O)(O2)C(=O)C(=O)N2CCCC[C@H]2C(=O)O[C@H]([C@H](C)C[C@@H]2CC[C@@H](OCCO)[C@H](OC)C2)CC(=O)[C@H](C)/C=C(\C)[C@@H](O)[C@@H](OC)C(=O)[C@H](C)C[C@H](C)/C=C/C=C/C=C/1C [EVEROLIMUS] | > 30 µM (inactive) | > 30 µM (inactive) | > 30 µM (inactive) | > 30 µM (inactive)
CC(C)Nc1cc(-c2c[nH]c(C(=O)N[C@H](CO)c3cccc(Cl)c3)c2)c(Cl)cn1 [ULIXERTINIB] | > 30 µM (inactive) | > 30 µM (inactive) | > 30 µM (inactive) | –
COc1cc2nccc(Oc3ccc(NC(=O)NC4CC4)c(Cl)c3)c2cc1C(N)=O [LENVATINIB] | 1.57 µM | > 30 µM (inactive) | > 30 µM (inactive) | –
Cc1ccc(-n2nc(C(C)(C)C)cc2NC(=O)NCc2cc(F)ccc2Oc2ccc3c(cnn3CCO)c2)cc1 [PEXMETINIB] | > 30 µM (inactive) | > 30 µM (inactive) | 5.21 µM | > 30 µM (inactive)
OCCn1cc(-c2cnc3nnn(Cc4ccc5ncccc5c4)c3n2)cn1 [PF-04217903] | > 30 µM (inactive) | > 30 µM (inactive) | > 30 µM (inactive) | –
CC(=O)Nc1cccc(-n2c(=O)n(C3CC3)c(=O)c3c(Nc4ccc(I)cc4F)n(C)c(=O)c(C)c32)c1 [TRAMETINIB] | > 30 µM (inactive) | > 30 µM (inactive) | > 30 µM (inactive) | –
CN1CCN(c2ccc3nc(-c4c(N)c5c(F)cccc5[nH]c4=O)[nH]c3c2)CC1 [DOVITINIB] | – | > 30 µM (inactive) | – | –
COC(=O)N[C@@H](C)CNc1nccc(-c2cn(C(C)C)nc2-c2cc(Cl)cc(NS(C)(=O)=O)c2F)n1 [ENCORAFENIB] | > 30 µM (inactive) | > 30 µM (inactive) | > 30 µM (inactive) | > 30 µM (inactive)
O=C(Nc1ccc(-c2ccnc(Nc3ccc(N4CCOCC4)cc3)n2)cc1)C1CCCN1 (stereo not drawn) [XL-019] | > 30 µM (inactive) | > 30 µM (inactive) | > 30 µM (inactive) | > 30 µM (inactive)
Cc1cc(Nc2cc(N3CCN(C)CC3)nc(/C=C/c3ccccc3)n2)n[nH]1 [ENMD-2076] | > 30 µM (inactive) | > 30 µM (inactive) | > 30 µM (inactive) | > 30 µM (inactive)
CCn1c(=O)c(-c2cc[nH]n2)cc2c(C)nc(N)nc21 [VOXTALISIB] | > 30 µM (inactive) | > 30 µM (inactive) | > 30 µM (inactive) | > 30 µM (inactive)
Cc1ccc(NC(=O)c2ccc(CN3CC[C@H](N(C)C)C3)c(C(F)(F)F)c2)cc1Nc1nccc(-c2cncnc2)n1 [BAFETINIB] | > 30 µM (inactive) | > 30 µM (inactive) | 1.3 µM (active) | > 30 µM (inactive)
COc1ccc(-c2ccc3c(N4CCOC[C@@H]4C)nc(N4CCOC[C@@H]4C)nc3n2)cc1CO [AZD-8055] | > 30 µM (inactive) | > 30 µM (inactive) | > 30 µM (inactive) | > 30 µM (inactive)
Cn1cc(-c2ccc(F)c(C(F)(F)F)c2)nc1C1CCN(c2ncnc3[nH]ncc23)CC1 [LY-2584702] | > 30 µM (inactive) | > 30 µM (inactive) | > 30 µM (inactive) | > 30 µM (inactive)
N[C@@H]1CCCN(c2c(/C=C3\SC(=O)NC3=O)cccc2-c2ccccc2)C1 | > 30 µM (inactive) | > 30 µM (inactive) | > 30 µM (inactive) | > 30 µM (inactive)
CCn1c(-c2nonc2N)nc2c(C#CC(C)(C)O)ncc(OC[C@H]3CCCNC3)c21 [GSK-690693] | – | > 30 µM (inactive) | – | –
O=C(Nc1cccc(Cl)c1)Nc1ncc(CCNc2ncnc3ccsc23)s1 [SNS-314] | > 30 µM (inactive) | > 30 µM (inactive) | > 30 µM (inactive) | –
COc1cc2nccc(Oc3ccc(NC(=O)Nc4cc(C)on4)c(Cl)c3)c2cc1OC [TIVOZANIB] | > 30 µM (inactive) | > 30 µM (inactive) | – | > 30 µM (inactive)
Cc1cn(-c2cc(NC(=O)c3ccc(C)c(Nc4nccc(-c5cccnc5)n4)c3)cc(C(F)(F)F)c2)cn1 [NILOTINIB] | – | > 30 µM (inactive) | – | –
COC(=O)[C@@]1(O)C[C@H]2O[C@]1(C)n1c3ccccc3c3c4c(c5c6ccccc6n2c5c31)C(=O)NC4 [K-252A] | 0.335 µM (active) | > 30 µM (inactive) | > 30 µM (inactive) | –
CNS(=O)(=O)Nc1nccc(Cc2c(C)c3ccc(Oc4ncccn4)cc3oc2=O)c1F [AVUTOMETINIB] | > 30 µM (inactive) | > 30 µM (inactive) | > 30 µM (inactive) | –
